Test system: K-562 leukemia growth, % test/control
Experiment: Anticancer human tumor K-562 cell line growth inhibition;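 further: spheroids exposed to compounds for 7 days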;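 on viability, T/C: 100% = DMSO vehicle wells and lower values mean fewer viable cells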
Settings: spheroids with HUVEC and MSC; for IC50: curve of first compound; for viability, T/C: stronger effect = lower value; active means viability on the fitted dose curve at most 10% of control; inactive means the rest
Source text: Multicellular complex tumor spheroid response to LSD1 Inhibitor Iadademstat in combination with a variety of drugs and investigational agents in selected tumor cell lines
The current study was undertaken to assess response to LSD1 inhibitors in combination with standard-of-care drugs and investigational agents in solid tumor complex spheroid models as well as in the K-562 leukemia. Complex spheroids include a stromal component modeled by human endothelial cells (HUVEC) and fibroblasts modeled by human mesenchymal stem cells (MSCs). The concentration ranges selected for each drug and investigational agent were based upon clinically achievable concentrations if the clinical Cmax of the agent was known.
Compounds. The drugs and investigational agents used in this study are listed on Table 1. All of the agents used, including staurosporine (NSC755774) and gemcitabine (NSC613327), were obtained from the Developmental Therapeutics Program, NCI. FDA-approved anticancer drugs are available from the NCI at http://dtp.nci.nih.gov/branches/dscb/oncology_drugset_explanation.html. Drugs and investigational agents were >95% pure by proton nuclear magnetic resonance (NMR) and liquid chromatography/mass spectrometry (LC/MS). Stock solutions were prepared at 400x in DMSO, stored at -70 degrees C, and diluted in fresh medium prior to their use. The final concentration of DMSO in cell culture wells never exceeded 0.25% (v/v). The FDA-approved anticancer drug set is available from the Developmental Therapeutics Program at https://dtp.cancer.gov/organization/dscb/obtaining/available_plates.htm. All drugs and investigational agents were tested over a range starting from a high concentration at or near the clinical Cmax and decreasing in half-log increments. If the clinical Cmax for an agent had not been determined, the highest concentration tested was 10 microM.
Cell Lines. The patient-derived cancer cell (PDC) lines: 292921-168-R-J2-PDC, K24384-001-R-PDC, and 521955-158-R2-J5-PDC pancreatic carcinomas, 556581-035-R-J1 ovarian carcinoma, 324938-238-R-J1-PDC, 855422-203-R-J1-PDC and 883617-216-R-J1-PDC urothelial bladder carcinomas, 743489-274-T-PDC renal cell carcinoma, 138582-R-J1 Merkel cell tumor, K60290-347-R-J1 and K57222-313-R-J1-PDC glioblastomas, 653999-131-R-J2-PDC, LG0703-F948-PDC, and 349418-098-R-PDC non-small cell lung carcinomas, 885512-296-R-J2-PDC, 171881-019-R-J1-PDC breast carcinomas and 186277-243-T-J2-PDC and 233499-124-R-J2-PDC colon carcinomas were obtained from the NCI Patient-Derived Models Repository (PDMR, https://pdmr.cancer.gov). The established cell lines NCI/ADR-RES (RRID:CVCL_14520 and OVCAR-5 (RRID:CVCL_1628) ovarian carcinomas, 786-O (RRID:CVCL_1051) and A498 (RRID:CVCL_A498) renal cell carcinoma, NCI-H211 (ATCC, cat. CRL-5824; RRID:CVCL_1529), NCI-H196 (ATCC, cat. CRL-5823, RRID:CVCL_1509), SW 1271 (ATCC, cat. CRL-2177, RRID:CVCL_1716) and NCI-H1876 (ATCC, cat. CRL-5902, RRID:CVCL_1503) small cell lung carcinomas, MDA-MB-231 (RRID:CVCL_0062) and MDA-MB-468 (RRID:CVCL_0419)breast carcinomas (10-12). Pooled donor human umbilical vein endothelial cells (HUVEC, Lonza, cat. CC-2519) and human mesenchymal stem cells (hMSC, Lonza, cat. PT-2501) were purchased from Lonza (Walkersville, MD).
Cell Culture. All cells were maintained in an incubator at 37 degrees C and 5% CO2 with 95% humidity. The PDC lines were cultured according to standard operating procedures established by the NCI PDMR (https://pdmr.cancer.gov). Briefly all PDCs were thawed and cultured in Matrigel-coated flasks prepared with a working solution of 1X Ham's F-12 nutrient mix, without supplementation (Invitrogen, Waltham, MA, cat. 11765054), 100 U/mL penicillin-streptomycin (Invitrogen, cat. 15140122), and 2.5% Matrigel (Corning Inc., Corning, NY, cat. 354248) for the first three passages. […]

CC[C@@]1(O)C(=O)OCc2c1cc1n(c2=O)Cc2cc3c(CN(C)C)c(O)ccc3nc2-1 + NC1CC1c1ccc(-c2cccc(O)c2)cc1
4.19 nM: IC50 (second compound 10 µM)
active: viability, T/C (second compound 0.1 µM, first compound 0.1 µM) 8.32% | viability, T/C (second compound 0.316 µM, first compound 0.1 µM) 5.85% | viability, T/C (second compound 1 µM, first compound 0.1 µM) 6.28% | viability, T/C (second compound 3.16 µM, first compound 0.1 µM) 6.02% | viability, T/C (second compound 10 µM, first compound 0.0316 µM) 9.44% | viability, T/C (second compound 10 µM, first compound 0.1 µM) 3.98%
4.98 nM: IC50 (second compound 3.16 µM)
inactive: viability, T/C (second compound 0.1 µM, first compound 0.000316 µM) 113% | viability, T/C (second compound 0.1 µM, first compound 0.001 µM) 107% | viability, T/C (second compound 0.1 µM, first compound 0.00316 µM) 61.6% | viability, T/C (second compound 0.1 µM, first compound 0.01 µM) 50.7% | viability, T/C (second compound 0.1 µM, first compound 0.0316 µM) 18.9% | viability, T/C (second compound 0.316 µM, first compound 0.000316 µM) 109% | viability, T/C (second compound 0.316 µM, first compound 0.001 µM) 106% | viability, T/C (second compound 0.316 µM, first compound 0.00316 µM) 60.2% | viability, T/C (second compound 0.316 µM, first compound 0.01 µM) 38.5% | viability, T/C (second compound 0.316 µM, first compound 0.0316 µM) 13.9% | viability, T/C (second compound 1 µM, first compound 0.000316 µM) 107% | viability, T/C (second compound 1 µM, first compound 0.001 µM) 100% | viability, T/C (second compound 1 µM, first compound 0.00316 µM) 59.9% | viability, T/C (second compound 1 µM, first compound 0.01 µM) 36.5% | viability, T/C (second compound 1 µM, first compound 0.0316 µM) 12% | viability, T/C (second compound 3.16 µM, first compound 0.000316 µM) 104% | viability, T/C (second compound 3.16 µM, first compound 0.001 µM) 99.7% | viability, T/C (second compound 3.16 µM, first compound 0.00316 µM) 56.5% | viability, T/C (second compound 3.16 µM, first compound 0.01 µM) 35.1% | viability, T/C (second compound 3.16 µM, first compound 0.0316 µM) 11% | viability, T/C (second compound 10 µM, first compound 0.000316 µM) 99.4% | viability, T/C (second compound 10 µM, first compound 0.001 µM) 94.9% | viability, T/C (second compound 10 µM, first compound 0.00316 µM) 52.4% | viability, T/C (second compound 10 µM, first compound 0.01 µM) 29.4%
5.74 nM: IC50 (second compound 0.316 µM)
5.4 nM: IC50 (second compound 1 µM)
7.67 nM: IC50 (second compound 0.1 µM)

Nc1ccn(C2OC(CO)C(O)C2(F)F)c(=O)n1 (stereo not given) + NC1CC1c1ccc(-c2cccc(O)c2)cc1
5.86 nM: IC50 (second compound 10 µM)
active: viability, T/C (second compound 0.316 µM, first compound 0.03 µM) 10.5% | viability, T/C (second compound 0.316 µM, first compound 0.0949 µM) 8.16% | viability, T/C (second compound 0.316 µM, first compound 0.3 µM) 8.05% | viability, T/C (second compound 1 µM, first compound 0.03 µM) 7.41% | viability, T/C (second compound 1 µM, first compound 0.0949 µM) 7.12% | viability, T/C (second compound 1 µM, first compound 0.3 µM) 7.2% | viability, T/C (second compound 3.16 µM, first compound 0.03 µM) 6.83% | viability, T/C (second compound 3.16 µM, first compound 0.0949 µM) 6.72% | viability, T/C (second compound 3.16 µM, first compound 0.3 µM) 7.82% | viability, T/C (second compound 10 µM, first compound 0.03 µM) 5.75% | viability, T/C (second compound 10 µM, first compound 0.0949 µM) 6.04% | viability, T/C (second compound 10 µM, first compound 0.3 µM) 7.9%
6.77 nM: IC50 (second compound 3.16 µM)
8.17 nM: IC50 (second compound 0.316 µM)
inactive: viability, T/C (second compound 0.1 µM, first compound 0.000949 µM) 105% | viability, T/C (second compound 0.1 µM, first compound 0.003 µM) 99.8% | viability, T/C (second compound 0.1 µM, first compound 0.00949 µM) 49.8% | viability, T/C (second compound 0.1 µM, first compound 0.03 µM) 12.8% | viability, T/C (second compound 0.1 µM, first compound 0.0949 µM) 10.7% | viability, T/C (second compound 0.1 µM, first compound 0.3 µM) 11.8% | viability, T/C (second compound 0.316 µM, first compound 0.000949 µM) 107% | viability, T/C (second compound 0.316 µM, first compound 0.003 µM) 102% | viability, T/C (second compound 0.316 µM, first compound 0.00949 µM) 42.1% | viability, T/C (second compound 1 µM, first compound 0.000949 µM) 106% | viability, T/C (second compound 1 µM, first compound 0.003 µM) 102% | viability, T/C (second compound 1 µM, first compound 0.00949 µM) 40.2% | viability, T/C (second compound 3.16 µM, first compound 0.000949 µM) 103% | viability, T/C (second compound 3.16 µM, first compound 0.003 µM) 101% | viability, T/C (second compound 3.16 µM, first compound 0.00949 µM) 29% | viability, T/C (second compound 10 µM, first compound 0.000949 µM) 100% | viability, T/C (second compound 10 µM, first compound 0.003 µM) 93.2% | viability, T/C (second compound 10 µM, first compound 0.00949 µM) 19%
9.42 nM: IC50 (second compound 0.1 µM)
7.91 nM: IC50 (second compound 1 µM)
